Values quoted from earlier work, collected in patent KR20220033790A, “장 정결용 조성물” (강윤식, priority 2020, dated 2022).

Test system: blood glucose (혈당)
Settings: scale 0-100, glucose = 100 at 2 h after intake; background statement

Row | SMILES | Glycemic index (GI)
1 | OC[C@@H](O)[C@@H](O)[C@H](O)[C@@H](O)CO.OC[C@@H](O)[C@@H](O)[C@H](O)[C@@H](O)CO [소르비톨] | 4
2 | OC[C@@H](O)[C@H](O)[C@@H](O)CO [자일리톨] | 14
